From ChEMBL document CHEMBL1201862, “PubChem BioAssay data set” (2004) come the findings set out here.

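Cultured in 96-well plates, cells were exposed to test compound for 48 hours across five concentrations. GI50 = concentration required for 50% inhibition of growth.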 The source made the active and inactive calls. No stated cut-off is given here; in the data, active = GI50 up to about 1.1 µM and inactive = higher.

Among the test systems are LOX IMVI; U-251; 786-0; SF-539; MDA-MB-231; BT-549; CCRF-CEM; SF-268; OVCAR-5; TK-10; SF-295; SN12C; DU-145; T47D; SW-620; CAKI-1; Hs-578T; K562; RPMI-8226.
Holding throughout (assay): inhibition of tumour cell growth, NCI panel, 48 h

For `CC(=O)CCC1(C(=O)OCC(C)C)CCCC1=O` (centres undefined), the GI50 with LOX IMVI, in the assay on U-251, in the assay with 786-0, with SF-539, with MDA-MB-231 and in the assay with BT-549 was > 100 µM (inactive) in each case. The GI50 with CCRF-CEM, with SF-268, with OVCAR-5, with TK-10, with SF-295 and with SN12C was > 100 µM (inactive) throughout. Also, the GI50 with DU-145, in the assay on T47D, in the assay on SW-620, in the assay on CAKI-1, with Hs-578T and in the assay on K562 was > 100 µM (inactive) in each case.

Take `O=C(Oc1c(Br)cc(Br)cc1C(=O)Oc1ccccc1)C(=O)Oc1c(Br)cc(Br)cc1C(=O)Oc1ccccc1`: the GI50 with U-251 was 13.1 µM (inactive); with 786-0, 19.6 µM (inactive); in the assay on SF-539 it was 19.7 µM (inactive); in the assay with MDA-MB-231 it was 12.1 µM (inactive); in the assay with BT-549 it was 18.5 µM (inactive); in the assay on SF-268 it was 29 µM (inactive). Also, the GI50 in the assay with OVCAR-5 is 24.4 µM (inactive); in the assay on TK-10 it was 49.2 µM (inactive); in the assay with SF-295, 31 µM (inactive); with SN12C, 30.3 µM (inactive); with DU-145, 37.5 µM (inactive); with T47D, 27.1 µM (inactive). In addition, the GI50 in the assay with RPMI-8226 is 15.5 µM (inactive); in the assay on SW-620, 19.8 µM (inactive); in the assay on CAKI-1 it was 19.7 µM (inactive); with Hs-578T, 34.8 µM (inactive); in the assay on K562, 12.7 µM (inactive).

Consider `CCNCCCNc1c2ccccc2nc2ccccc12`, for which the GI50 in the assay with LOX IMVI is 0.251 µM (active); in the assay with U-251, 0.435 µM (active); in the assay on 786-0, 0.552 µM (active); in the assay with SF-539 it was 0.279 µM (active); in the assay with MDA-MB-231, 0.612 µM (active); in the assay on BT-549, 1.92 µM (inactive). In addition, the GI50 was 0.514 µM (active) with CCRF-CEM; 0.472 µM (active) in the assay with SF-268; 0.278 µM (active) in the assay on OVCAR-5; 0.571 µM (active) in the assay on TK-10; 0.498 µM (active) with SF-295; 0.429 µM (active) with SN12C. Further, the GI50 is 0.525 µM (active) in the assay on DU-145; 0.502 µM (active) with T47D; 0.278 µM (active) in the assay with SW-620; 0.334 µM (active) with CAKI-1; 0.653 µM (active) in the assay with Hs-578T; 0.329 µM (active) in the assay on K562.

For `c1ccc(C(=NNc2cnc3ccccc3n2)c2ccccn2)cc1`, the GI50 is 2.31 µM (inactive) with U-251; 1.38 µM (inactive) in the assay on 786-0; 1.58 µM (inactive) in the assay on SF-539; 1 µM (active) in the assay with MDA-MB-231; 8.18 µM (inactive) in the assay with BT-549; 0.208 µM (active) in the assay on CCRF-CEM. Further, the GI50 with SF-268 was 1.52 µM (inactive); in the assay with OVCAR-5, 2.59 µM (inactive); in the assay with SF-295, 2.93 µM (inactive); with SN12C, 0.991 µM (active); with DU-145 it was 3.3 µM (inactive); with T47D, 0.0188 µM (active). Moreover, the GI50 was 2.02 µM (inactive) with RPMI-8226; 0.423 µM (active) in the assay with SW-620; 0.382 µM (active) with CAKI-1; 12 µM (inactive) in the assay on Hs-578T; 1.2 µM (inactive) in the assay on K562.

In the case of `CC(=O)N1N=C(N)CC1=O`, the GI50 with LOX IMVI, with U-251, with 786-0, in the assay with SF-539, in the assay on MDA-MB-231 and with BT-549 was > 100 µM (inactive) each time. The GI50 in the assay with CCRF-CEM, in the assay on SF-268, with OVCAR-5, in the assay with TK-10, in the assay with SF-295 and in the assay on SN12C was > 100 µM (inactive) each time. Besides, the GI50 in the assay on DU-145, with T47D, in the assay with SW-620, in the assay with CAKI-1, with Hs-578T and in the assay on K562 was > 100 µM (inactive) each time.

For the compound `Cc1cc(S(=O)(=O)N/C(=C(\C#N)C(=O)c2ccccc2)[n+]2ccc(N(C)C)cc2)c([S-])cc1Cl`, the GI50 with U-251, with 786-0, in the assay on SF-539, with MDA-MB-231, with BT-549 and in the assay on CCRF-CEM was > 100 µM (inactive) in each case. Further, the GI50 in the assay on SF-268 is > 100 µM (inactive); in the assay on OVCAR-5, > 100 µM (inactive); in the assay on TK-10 it was 53.6 µM (inactive); with SF-295, > 100 µM (inactive); in the assay with SN12C, > 100 µM (inactive); in the assay on DU-145 it was > 10 µM (inactive). In addition, the GI50 with T47D, in the assay with RPMI-8226, in the assay on CAKI-1, with Hs-578T and in the assay with K562 was > 100 µM (inactive) in each case.

As for `Cc1cc2c(c(S(=O)(=O)c3ccccc3[N+](=O)[O-])c1)NCCC2`, the GI50 is 47.2 µM (inactive) in the assay with LOX IMVI; 83.9 µM (inactive) with U-251; > 100 µM (inactive) in the assay on 786-0; > 100 µM (inactive) with SF-539; > 100 µM (inactive) in the assay with MDA-MB-231; 19.1 µM (inactive) with BT-549. In addition, the GI50 is 83.6 µM (inactive) with SF-268; > 100 µM (inactive) with OVCAR-5; > 100 µM (inactive) in the assay with TK-10; 55.6 µM (inactive) in the assay on SF-295; 76.4 µM (inactive) in the assay on SN12C; 77.1 µM (inactive) in the assay with DU-145. Also, the GI50 was 6.44 µM (inactive) in the assay with T47D, 85.3 µM (inactive) with RPMI-8226, > 100 µM (inactive) in the assay on SW-620 and > 100 µM (inactive) with Hs-578T.

Turning to `Cc1ccc2c(c1)C(=O)/C(=C1/CCc3ccc(C)cc31)C2`, the GI50 was > 100 µM (inactive) in the assay with LOX IMVI; > 100 µM (inactive) in the assay with U-251; 46 µM (inactive) with 786-0; 54.7 µM (inactive) in the assay with SF-539; 27.8 µM (inactive) in the assay on MDA-MB-231; > 100 µM (inactive) in the assay with BT-549. The GI50 in the assay with CCRF-CEM was 86.5 µM (inactive); with SF-268, > 100 µM (inactive); in the assay on OVCAR-5, > 100 µM (inactive); in the assay with TK-10 it was > 100 µM (inactive); with SF-295 it was > 100 µM (inactive); in the assay with SN12C, > 100 µM (inactive). Also, the GI50 in the assay on DU-145 was > 100 µM (inactive); in the assay with T47D, 14.7 µM (inactive); in the assay on RPMI-8226, > 100 µM (inactive); with SW-620, > 100 µM (inactive); in the assay with Hs-578T it was > 100 µM (inactive); in the assay on K562, 76 µM (inactive).
